According to patent publication US10799512B2, “Estrogen combination for treatment of multiple sclerosis” (The Regents of the University of California, priority 2014, dated 2020):

Legend:
Type in all cases: in vivo, human
[1] = Estriol blood/serum levels in treated patients
Method: (§1) Patients also underwent mammograms before and after the study.
Baseline characteristics were similar in both patient groups.
FIG. 6 depicts estriol blood levels induced by treatment with estriol 8 mg per day every day plus norethindrone 0.7 mg a day for 14 days every 3 months.

[2] = test system: female patients with active relapsing multiple sclerosis; test: Safety and tolerability (gynecological and breast exams, adverse events); details: patients received Copaxone with estriol
Method: 158 patients were randomized to Copaxone® (glatiramer acetate) injections (20 mg/day) and oral estriol (8 mg/day) or to Copaxone® injections and placebo for a 24-month treatment duration. Gynecologists examined the patients before, during, and after the study. Each patient was examined at three- to six-month intervals during the trial. Patients also underwent mammograms before and after the study. In addition, at baseline, three months, six months, 12 months, 18 months, and 24 months, the investigators measured participants' estriol levels, and assessed for MS relapses and MS-related disabilities.
Baseline characteristics were similar in both patient groups. Participants' mean age at entry was approximately 38, and their mean EDSS score at entry was 2.2. […] To ensure breast and uterus safety, every three months the patients took norethindrone 0.7 mg once a day for 14 days.

[3] = test system: female patients with active relapsing multiple sclerosis; test: Brain MRI, gadolinium enhancing lesions; details: at month 12; p=0.14
From the text: as §1
Brain MRI is used extensively in MS as a surrogate marker for clinical effects. Brain white matter gadolinium enhancing lesions are a biomarker for relapses.

[4] = test system: female patients with active relapsing multiple sclerosis; test: Timed 25-foot walk test; details: between-group difference p=0.02; higher time = worse
From the text: as §1
Another clinical disability measure with treatment effects was the timed 25-foot walk test. This test measures how many seconds it takes to walk 25 feet, with higher scores indicating worse disability. […] This beneficial effect of estriol treatment on 25-foot walking times is consistent with the beneficial effect of estriol treatment on EDSS scores since the latter is weighted toward being an indicator of ambulation.

[5] = test system: female patients with active relapsing multiple sclerosis; test: Expanded Disability Status Scale (EDSS); details: over 24 months
From the text: as §1
The Expanded Disability Status Scale (EDSS) is a standard composite disability score used in MS trials. Higher scores indicate worse disability. This composite covers a variety of disabilities (including ambulation, vision, cognition, coordination, etc.), but the scoring is not linear and the composite score is understood to be principally an indicator of the level of disability in ambulation.

| Compound | estriol blood levels induced ([1]; estriol 8 mg per day every day plus norethindrone 0.7 mg a day for 14 days every 3 months, FIG. 6) | estriol levels in serum ([1]; estriol-treated group, oral estriol 8 mg/day) | Breast - Fibrocystic breast disease on clinical exam [2] | Uterine fibroids on ultrasound [2] | reduction in number of subjects with brain MRI scans positive for enhancing lesions [3] | change in 25-foot walk time [4] | EDSS scores, slope ([5]; FIG. 4, p=0.06 (estriol), p=0.90 (placebo)) | change in EDSS scores ([5]; decrease = improvement) |
| --- | --- | --- | --- | --- | --- | --- | --- | --- |
| C[C@]12CC[C@@H]3c4ccc(O)cc4CC[C@H]3[C@@H]1C[C@@H](O)[C@@H]2O [estriol] | about 10 ng/ml | mid-pregnancy range | 5 subjects | 8 subjects |  |  |  |  |
| glatiramer acetate [Copaxone® plus placebo] |  |  |  |  | 22% | significantly increased | −0.01 | no change |
